Source: BigSolDB 2.1

Nc1ccc(S(=O)(=O)O)cc1
solubility (mole fraction)
Conditions	in acetic acid	in acetone	in acetonitrile	in ethanol	in formic acid	in isopropanol	in methanol
278.15 K	–	0.000291	0.000132	0.000213	0.00106	0.000253	0.000247
283.15 K	–	0.000296	0.000144	0.000231	0.00116	0.00027	0.000263
288.15 K	0.00204	0.000303	0.000165	0.000251	0.00129	0.000303	0.000284
293.15 K	0.00217	0.00031	0.000178	0.000264	0.00139	0.000318	0.000299
298.15 K	0.00227	0.000317	0.000195	0.000284	0.00152	0.000348	0.000318
303.15 K	0.0024	0.000324	0.000214	0.0003	0.00166	0.000373	0.000342
308.15 K	0.00252	0.000332	0.000235	0.000323	0.00181	0.000403	0.000362
313.15 K	0.00264	0.000338	0.000255	0.000338	0.00196	0.000429	0.000383
318.15 K	0.00277	0.000346	0.000274	0.000363	0.00213	0.000461	0.000403
323.15 K	0.00291	0.000353	0.000301	0.000385	0.00231	0.000494	0.000432
328.15 K	0.00304	0.00036	0.000324	0.000403	0.00247	0.000525	0.00045
